Columns and labels:
[1] = concentration of 400 and 100 ppm; cited from earlier work
rice blast = test: microbe, parasite or virus in culture; format: cell-based; conditions: Pyricularia oryzae; for inhibition at 8.3 ppm: read-out: inhibition rate against rice blast, 8.3 ppm, in vitro; for inhibition at 25 ppm: read-out: inhibition rate against rice blast, 25 ppm, in vitro
corn rust = test: protectant activity in vivo against corn rust; conditions: Zea mays, 168 h; for pest or weed control at 25 µg/mL: read-out: control effect against corn rust (%), 25 mg/L; for pest or weed control at 100 µg/mL: read-out: control effect against corn rust (%), 100 mg/L; for pest or weed control at 400 µg/mL: read-out: control effect against corn rust (%), 400 mg/L; for pest or weed control at 100 ppm: read-out: protectant activity against corn rust in vivo, 100 ppm; for pest or weed control at 400 ppm: read-out: protectant activity against corn rust in vivo, 400 ppm
[2] = test system: Green peach aphids (Myzus Persicae Sulzer); test: bioactivity test against green peach aphid, airbrush foliar spray; format: in vivo; conditions: Myzus persicae, foliar, 48 h; for pest or weed control at 2.5 µg/mL: 2.5 mg/L; for pest or weed control at 5 µg/mL: 5 mg/L; for pest or weed control at 10 µg/mL: 10 mg/L; for pest or weed control at 100 µg/mL: 100 mg/L; for pest or weed control at 600 µg/mL: 600 mg/L
In short: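 Aphids (15-30 per cabbage leaf disc) on moist filter paper were airbrush-sprayed at 10 psi, 0.5 mL, with compound from acetone:methanol (1:1) diluted in water with 0.1% tween 80. Held at 25±1 C, 60±5% RH; survivors counted after 48 hrs to give death rates.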

[3] = concentration of 50 ppm; cited from earlier work
armyworm = test: bioactivity test against armyworm, airbrush spray; format: in vivo; conditions: 72 h; for pest or weed control at 10 µg/mL: 10 mg/L; for pest or weed control at 10 µg/mL / pest or weed control at 100 µg/mL / pest or weed control at 600 µg/mL: read-out: Insecticidal activity against armyworm (%); for pest or weed control at 100 µg/mL: 100 mg/L; for pest or weed control at 600 µg/mL: 600 mg/L
wheat powdery mildew = test: protectant activity in vivo against wheat powdery mildew; conditions: Triticum aestivum, 168 h; for pest or weed control at 100 µg/mL: read-out: control effect against wheat powdery mildew (%), 100 mg/L; for pest or weed control at 100 µg/mL / pest or weed control at 400 µg/mL / pest or weed control at 6.25 µg/mL / pest or weed control at 25 µg/mL: protectant activity; for pest or weed control at 400 µg/mL: read-out: control effect against wheat powdery mildew (%), 400 mg/L; for pest or weed control at 400 ppm: read-out: protectant activity against wheat powdery mildew in vivo, 400 ppm; for pest or weed control at 6.25 µg/mL: read-out: control effect against wheat powdery mildew (%), 6.25 mg/L; for pest or weed control at 25 µg/mL: read-out: control effect against wheat powdery mildew (%), 25 mg/L
cucumber gray mold = test: fungicidal activity in vitro (inhibition rate) against cucumber gray mold; format: cell-based; conditions: 25 ppm, in vitro; read-out: inhibition rate against cucumber gray mold
cucumber downy mildew = test: protectant activity in vivo against cucumber downy mildew; conditions: Cucumis sativus, 168 h; for pest or weed control at 100 ppm: read-out: protectant activity against cucumber downy mildew in vivo, 100 ppm; for pest or weed control at 6.25 µg/mL: read-out: control effect against cucumber downy mildew (%), 6.25 mg/L; for pest or weed control at 6.25 µg/mL / pest or weed control at 12.5 µg/mL / pest or weed control at 25 µg/mL / pest or weed control at 50 µg/mL / pest or weed control at 100 µg/mL / pest or weed control at 400 µg/mL: protectant activity; for pest or weed control at 12.5 µg/mL: read-out: control effect against cucumber downy mildew (%), 12.5 mg/L; for pest or weed control at 25 µg/mL: read-out: control effect against cucumber downy mildew (%), 25 mg/L; for pest or weed control at 50 µg/mL: read-out: control effect against cucumber downy mildew (%), 50 mg/L; for pest or weed control at 100 µg/mL: read-out: control effect against cucumber downy mildew (%), 100 mg/L; for pest or weed control at 400 µg/mL: read-out: control effect against cucumber downy mildew (%), 400 mg/L
Diamond back moth = test: insecticidal activity against diamond back moth, airbrush spray; format: in vivo; conditions: 72 h
In short: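 Airbrush leaf-disc spray test: both faces of 2 cm cabbage discs received 0.5 ml of test solution at 0.7 kg/cm^2. Solutions were made in acetone:methanol (1:1) and brought to concentration with 0.1% Tween 80 in water. Ten second-instar larvae per disc, triplicates, were held at 25° C and 60˜70% R.H., with mortality recorded at 72 hrs.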

carmine spider mite = test: bioactivity test against carmine spider mite, airbrush spray; format: in vivo; conditions: Tetranychus cinnabarinus, 72 h
In short: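 Broadbean seedlings infested with adult mites were sprayed with compound (acetone/methanol stock diluted in 0.1% Tween 80 water) by airbrush at 0.7 kg/cm^2, 0.5 ml. Three replicates were run. Mortality was scored after 72 hrs.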

[4] = contrastive test, read-out: Insecticidal activity against peach aphid (%)

For `Clc1ccc(Oc2ccc(CCNc3ncnc4ccccc34)cn2)cc1` [CK18, reference compound], the fungicidal activity [1] is given as “good fungicidal activity”, the inhibition at 8.3 ppm (rice blast) is given as 0% and the pest or weed control at 25 µg/mL (corn rust; protectant activity) is given as 0%. For the same molecule, the pest or weed control at 100 µg/mL (corn rust; protectant activity) was 30%, the pest or weed control at 400 µg/mL (corn rust; protectant activity) was 80% and the pest or weed control at 2.5 µg/mL [2, 4] was 0%. For the same molecule, the pest or weed control at 5 µg/mL [2, 4] was 7%, the pest or weed control at 10 µg/mL [2, 4] was 51% and the pest or weed control at 100 µg/mL [2, 4] was 71%. For the same molecule, the pest or weed control at 600 µg/mL [2, 4] was 100%, the insectcidal activity [3] was “good insectcidal activity” and the pest or weed control at 10 µg/mL (armyworm) was 14%. The pest or weed control at 100 µg/mL (armyworm) was 43% and the pest or weed control at 600 µg/mL (armyworm) was 100%.
In the case of `FC(F)(F)c1ccc(Oc2ccc(CCNc3ncnc4ccccc34)cn2)cc1` [CK19, reference compound], the pest or weed control at 100 µg/mL (wheat powdery mildew) is listed as 0%, the pest or weed control at 400 µg/mL (wheat powdery mildew) is listed as 50% and the fungicidal activity [1] is listed as “good fungicidal activity”. For the same molecule, the inhibition at 8.3 ppm (rice blast) was 0%, the pest or weed control at 100 µg/mL (corn rust; protectant activity) was 0% and the pest or weed control at 400 µg/mL (corn rust; protectant activity) was 70%. The pest or weed control at 10 µg/mL [2, 4] was 33%, the pest or weed control at 100 µg/mL [2, 4] was 86% and the pest or weed control at 600 µg/mL [2, 4] was 100%. For the same molecule, the insectcidal activity [3] was “good insectcidal activity”, the pest or weed control at 10 µg/mL (armyworm) was 7% and the pest or weed control at 100 µg/mL (armyworm) was 25%. The pest or weed control at 600 µg/mL (armyworm) was 86%.
Molecule `COc1cc(OC)nc(Oc2ccc(CCNc3ncnc(C)c3Cl)cc2)n1` [Compound I-4757] has a pest or weed control at 400 ppm (wheat powdery mildew) of 100%, an inhibition at 25 ppm (rice blast) of 80 to 99% and a melting point of 119 to 120 °C. It also gave a pest or weed control at 25 ppm (corn rust; read-out: protectant activity against corn rust in vivo, 25 ppm) of 80 to 99%, a pest or weed control at 100 ppm (corn rust) of 100% and a pest or weed control at 400 ppm (corn rust) of 100%. It also gave an inhibition at 25 ppm (cucumber gray mold) of 100%, a pest or weed control at 100 ppm (cucumber downy mildew) of 100% and a pest or weed control at 400 ppm (cucumber downy mildew; read-out: protectant activity against cucumber downy mildew in vivo, 400 ppm) of 100%.
With `CCc1ncnc(NCCc2ccc(Oc3ccc(C(F)(F)F)cc3)nc2)c1Cl` [III-202] the pest or weed control at 6.25 µg/mL (wheat powdery mildew) was 95%, the pest or weed control at 25 µg/mL (wheat powdery mildew) was 100% and the pest or weed control at 100 µg/mL (wheat powdery mildew) was 100%. It also gave a pest or weed control at 400 µg/mL (wheat powdery mildew) of 100%, a pest or weed control at 6.25 ppm (wheat powdery mildew; read-out: protectant activity against wheat powdery mildew in vivo, 6.25 ppm) of 80 to 99% and a pest or weed control at 25 ppm (wheat powdery mildew; read-out: protectant activity against wheat powdery mildew in vivo, 25 ppm) of 100%. It also gave a pest or weed control at 100 ppm (wheat powdery mildew; read-out: protectant activity against wheat powdery mildew in vivo, 100 ppm) of 100%, a pest or weed control at 400 ppm (wheat powdery mildew) of 100% and an inhibition at 25 ppm (rice blast) of 80 to 99%. It also gave a pest or weed control at 100 ppm (corn rust) of 100%, a pest or weed control at 400 ppm (corn rust) of 100% and a pest or weed control at 1.25 µg/mL ([2]; 1.25 mg/L, contrastive test, read-out: Insecticidal activity against peach aphid (%)) of 94%. For the same molecule, the pest or weed control at 2.5 µg/mL [2, 4] was 100%, the pest or weed control at 5 µg/mL [2, 4] was 100% and the pest or weed control at 10 µg/mL [2, 4] was 100%. For the same molecule, the pest or weed control at 100 µg/mL [2, 4] was 100%, the pest or weed control at 600 µg/mL [2, 4] was 100% and the pest or weed control at 10 ppm ([2]; 10 ppm, death rate after 48 hrs) was 100%. It also gave a pest or weed control at 100 ppm ([2]; 100 ppm, death rate after 48 hrs) of 100%, a pest or weed control at 600 ppm ([2]; 600 ppm, death rate after 48 hrs) of 100% and a pest or weed control at 100 ppm (Diamond back moth; 100 ppm, mortality after 72 hrs, read-out: control (test results against diamond back moth)) of 80 to 99%. The pest or weed control at 600 ppm (Diamond back moth; 600 ppm, mortality after 72 hrs, read-out: control (test results against diamond back moth)) was 100%, the pest or weed control at 10 µg/mL (armyworm) was 65% and the pest or weed control at 100 µg/mL (armyworm) was 100%. For the same molecule, the pest or weed control at 600 µg/mL (armyworm) was 100%, the pest or weed control at 100 ppm (armyworm; 100 ppm, mortality after 72 h) was 100% and the pest or weed control at 600 ppm (armyworm; 600 ppm, mortality after 72 h) was 100%. It also gave an inhibition at 25 ppm (cucumber gray mold) of 80 to 99%, a pest or weed control at 6.25 µg/mL (cucumber downy mildew) of 100% and a pest or weed control at 12.5 µg/mL (cucumber downy mildew) of 100%. The pest or weed control at 25 µg/mL (cucumber downy mildew) was 100%, the pest or weed control at 50 µg/mL (cucumber downy mildew) was 100% and the pest or weed control at 100 µg/mL (cucumber downy mildew) was 100%. For the same molecule, the pest or weed control at 400 µg/mL (cucumber downy mildew) was 100%, the pest or weed control at 6.25 ppm (cucumber downy mildew; read-out: protectant activity against cucumber downy mildew in vivo, 6.25 ppm) was 100% and the pest or weed control at 12.5 ppm (cucumber downy mildew; read-out: protectant activity against cucumber downy mildew in vivo, 12.5 ppm) was 100%. It also gave a pest or weed control at 25 ppm (cucumber downy mildew; read-out: protectant activity against cucumber downy mildew in vivo, 25 ppm) of 100%, a pest or weed control at 50 ppm (cucumber downy mildew; read-out: protectant activity against cucumber downy mildew in vivo, 50 ppm) of 100% and a pest or weed control at 100 ppm (cucumber downy mildew) of 100%. The pest or weed control at 100 ppm (carmine spider mite; 100 ppm, mortality after 72 hrs) was 100% and the pest or weed control at 600 ppm (carmine spider mite; 600 ppm, mortality after 72 hrs) was 100%.
For `CCC(Nc1ncnc(C)c1Cl)c1ccc(OC(F)F)cc1` (centres unmarked) [diflumetorim, reference compound], the pest or weed control at 6.25 µg/mL (wheat powdery mildew) was 90%, the pest or weed control at 25 µg/mL (wheat powdery mildew) was 95% and the pest or weed control at 100 µg/mL (wheat powdery mildew) was 95%. It also gave a pest or weed control at 400 µg/mL (wheat powdery mildew) of 100%, an inhibition at 8.3 ppm (rice blast) of 0% and a pest or weed control at 6.25 µg/mL (corn rust; read-out: control effect against corn rust (%), 6.25 mg/L, protectant activity) of 0%. For the same molecule, the pest or weed control at 25 µg/mL (corn rust; protectant activity) was 10%, the pest or weed control at 100 µg/mL (corn rust; protectant activity) was 80% and the pest or weed control at 400 µg/mL (corn rust; protectant activity) was 100%. It also gave a pest or weed control at 10 µg/mL [2, 4] of 0%, a pest or weed control at 100 µg/mL [2, 4] of 35% and a pest or weed control at 600 µg/mL [2, 4] of 100%. It also gave a pest or weed control at 600 µg/mL (Diamond back moth; 600 mg/L) of 0%, a pest or weed control at 600 µg/mL (armyworm) of 0% and an inhibition at 25 ppm (cucumber gray mold) of 0%. It also gave a pest or weed control at 6.25 µg/mL (cucumber downy mildew) of 0%, a pest or weed control at 12.5 µg/mL (cucumber downy mildew) of 15% and a pest or weed control at 25 µg/mL (cucumber downy mildew) of 70%. The pest or weed control at 50 µg/mL (cucumber downy mildew) was 100%, the pest or weed control at 100 µg/mL (cucumber downy mildew) was 100% and the pest or weed control at 400 µg/mL (cucumber downy mildew) was 100%. It also gave a pest or weed control at 10 µg/mL (carmine spider mite; 10 mg/L, contrastive test, read-out: Insecticidal activity against carmine spider mite (% )) of 73%, a pest or weed control at 100 µg/mL (carmine spider mite; 100 mg/L, contrastive test, read-out: Insecticidal activity against carmine spider mite (% )) of 100% and a pest or weed control at 600 µg/mL (carmine spider mite; 600 mg/L, contrastive test, read-out: Insecticidal activity against carmine spider mite (% )) of 100%.
